According to PMC7910999, “Hyaluronidase Inhibitor-Incorporated Cross-Linked Hyaluronic Acid Hydrogels for Subcutaneous Injection” (Pharmaceutics, 2021):
In brackets after ≈: the same amount, converted by molar mass. Read-outs that look alike come from different tables or passages of the source. Blank lines part the entries; values can stand above or below the molecule they belong to.

How the values were obtained:
[1] = biological target: T1, HAase (from bovine testes) (Bos taurus, UniProt Q2YDK3); assay: In vitro degradation of cHA hydrogels in PBS containing HAase; format: in vitro ADME; details: QCT loaded in cHA hydrogels, 8 h, 5 U/mL HAase
T1 construct: purchased Sigma-Aldrich Co. (St. Louis, MO, USA); host or cells: bovine testes (tissue-derived preparation)
T1 sequence (Q2YDK3 36-553): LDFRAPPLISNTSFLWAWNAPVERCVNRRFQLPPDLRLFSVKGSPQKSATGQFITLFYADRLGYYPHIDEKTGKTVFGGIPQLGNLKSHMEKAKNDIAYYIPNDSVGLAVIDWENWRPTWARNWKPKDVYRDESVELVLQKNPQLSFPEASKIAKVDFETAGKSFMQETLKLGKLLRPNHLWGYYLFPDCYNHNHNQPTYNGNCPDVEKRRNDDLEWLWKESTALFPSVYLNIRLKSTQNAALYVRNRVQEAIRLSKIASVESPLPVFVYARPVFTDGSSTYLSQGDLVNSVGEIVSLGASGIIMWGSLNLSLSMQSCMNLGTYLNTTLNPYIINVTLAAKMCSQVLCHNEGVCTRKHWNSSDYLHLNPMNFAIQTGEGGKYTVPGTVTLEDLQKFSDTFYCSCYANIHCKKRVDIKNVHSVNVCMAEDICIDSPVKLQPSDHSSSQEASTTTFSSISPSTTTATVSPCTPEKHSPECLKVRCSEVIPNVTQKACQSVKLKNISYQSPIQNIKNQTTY
Protocol: The in vitro degradation feature of the cHA hydrogel structures was investigated by monitoring the mass change of the hydrogels compared to their initial weight according to a previously reported, slightly modified method. Briefly, to evaluate the weight change of the cHA and QCT-loaded cHA hydrogels (i.e., cHA/QCT1, cHA/QCT3, and cHA/QCT5), each gel specimen (approximately 1.1 g) was placed into 10 mL of a PBS solution containing 5 U/mL of HAase. Upon immersion in the media, the weight of the hydrogels was measured at 2, 4, 6, and 8 h. The remaining weight percentage (%) of each hydrogel compared to the initial weight was recorded.

[2] = Solubility in various media (HPLC); format: physicochemical; details: for solubility: unpublished data
Protocol: In order to select a solvent for hydrating (i.e., swelling) the cHA gel, the solubilities of QTP hemifumarate and the QTP base in distilled water (DW), phosphate-buffered saline (PBS; pH = 7.4), and ethanol (EtOH) were determined by high-performance liquid chromatography (HPLC). Briefly, an excess amount of QTP hemifumarate or QTP base was added to 1 mL of each solvent and completely vortex-mixed with vortex shaker (Vortex-Genie 2; Scientific Industries, Inc., Bohemia, NY, USA) at […] 37 °C for 1 day. Upon reaching the steady state, each sample was centrifuged and filtered to eliminate undissolved fractions. An HPLC system equipped with an automatic injector (Waters 717 plus), a pump (Waters 1515; Waters Company, Milford, MA, USA), and a UV/VIS detector (Waters 2487) connected with a reverse-phase C18 column (Kinetex C18; 250 × 4.6 mm, 5 μm; Phenomenex, Torrance, CA, USA) was utilized for measuring the concentration of QTP in each medium. The flow rate of the mobile phase and the injection volume of the specimen were set to 1.0 mL/min and 20 μL, respectively. The mobile phase consisted of 30 mM ammonium acetate in DW (pH 6.0) and methanol (30:70, v/v). The absorption wavelength was set to 238 nm for detection and the retention time of QTP was 14 min [23].
The QTP base precipitate was prepared using a previously reported desalting method with a slight modification. Briefly, QTP hemifumarate (10 mg) was solubilized in a 1 N HCl solution (0.7 mL), and then, a 1 N NaOH solution (0.8 mL) was added for precipitating the QTP base. The sample was then centrifuged at 16,000× g for 5 min and the supernatant portion was eliminated. After adding 1 mL of DW to the precipitate, it was centrifuged again, and the supernatant was removed. Finally, the QTP base precipitate was freeze-dried at −70 °C for 48 h for further use.

[3] = rats, intragastric administration; cited from earlier work
[4] = In vitro release of QTP (dialysis bag method); format: physicochemical; details: within 8 h; PBS with 0.5% SLS, 37 °C
Protocol: The release of QTP from the cHA hydrogels was measured using the dialysis bag method. Briefly, aliquots of the free QTP solution (in ethanol/PEG 400/PBS = 1/1/2 (v/v/v)) and the QTP-loaded hydrogels (i.e., cHA/QTP and cHA/QTP/QCT5) (corresponding to 12 mg of QTP) were loaded into dialysis membranes (2 kDa of molecular weight cut-off; Cellu Sep H1, Membrane Filtration Products Ltd., Seguin, TX, USA). In case of cHA/QTP/QCT5 + HAase group, HAase (1 mg/mL) was added to the cHA/QTP/QCT5 hydrogel. Each membrane sac was immersed in PBS (20 mL) containing 0.5% SLS, and then they were agitated in a shaking water bath (37 °C) at 50 rpm. Aliquots of the release media were collected at 0.5, 1, 2, 4, 6, 8, 24, 48, 72, 96, 144, 168, 192, 288, 336, and 360 h, and the same volume of fresh medium was replenished each time. The QTP concentrations in the release media were quantitatively determined by the HPLC method described above.

SMILES: O=c1c(O)c(-c2ccc(O)c(O)c2)oc2cc(O)cc(O)c12 [QCT, quercetin]
- HAase inhibition [1]: inhibited HAase in a dose-dependent manner
- solubility ([2]; ethanol, organic solvent or mixture, EtOH, read-out: Solubility in EtOH): 17.6 ± 1.05 mg/mL (≈ 58.4 mM)
- solubility ([2]; water, read-out: Solubility in water): < 0.01 mg/mL

- solubility at 1 day ([2]; ethanol, organic solvent or mixture, thermodynamic from solid, EtOH, Figure 2A): > 50 mg/mL
SMILES: OCCOCCN1CCN(C2=Nc3ccccc3Sc3ccccc32)CC1 [QTP base, quetiapine]

SMILES: OCCOCCN1CCN(C2=Nc3ccccc3Sc3ccccc32)CC1 [QTP, quetiapine]
- Biological half-life [3]: 2.1 h
- QTP diffused from the dialysis membrane [4]: over 90%
